Where “and” joins values, the source holds several entries; their conditions need not be identical. Equal values may be shown once.
Experiments:
[1] = system: F98 rat glioma cells; assay: In vitro 10B uptake in F98 cells (ICP-AES); assay type: cell-based; conditions: 24 h incubation in DMEM with 1 mM boron compound
Method: For the in vitro ^10B uptake study, B16 mouse melanoma cells, C6 rat glioma cells, and F98 rat glioma cells were used. B16 and C6 cells were used for in vitro testing at Osaka Prefecture University. Based on results from initial in vitro screening, the in vitro ^10B uptake study using F98 glioma cells were performed at Osaka Medical College. Four hundred thousand cells were seeded in a tissue culture dish (100 × 20 mm; Becton Dickinson, Franklin Lakes, NJ, USA) with DMEM supplemented with 10% FBS and 10% penicillin and streptomycin at 37 °C in a 5% CO2 atmosphere. After incubation for 4 days at 37 °C, the medium was removed, and DMEM with 10% FBS containing 1 mM KA-BSH, BSH, or BPA was added to each dish. The cells were incubated for an additional 24 h at 37 °C. The medium was then removed, and the cells were washed twice with 4 °C phosphate-buffered saline (PBS) and detached with trypsin–ethylenediamine tetraacetic acid solution. PBS was then added, and cells were digested overnight with 1 N nitric acid solution (Wako Pure Chemical Industries, Osaka, Japan), and ^10B uptake was determined by inductively coupled plasma atomic emission spectrometry (ICP-AES) using an iCAP6000 emission spectrometer (Hitachi High-Technologies, Tokyo, Japan).

[2] = system: F98 glioma bearing rats; assay: Biodistribution in F98 glioma bearing rats (ICP-AES); assay type: in vivo, rat; conditions: iv
Excerpt: All animal experimental procedures were approved by the Animal Use Review Board and Ethical Committee of Osaka Medical College (No. 25092, 28 October 2015) and Kyoto University Research Reactor Institute (KURRI, No. 25030-13, 1 April 2015), and performed following the Guide for the Care and Use of Laboratory Animals. Eight-week-old, male Fischer 344 rats weighing between 200 and 250 g were used (Japan SLC, Inc. Shizuoka, Japan). Rats were anesthetized with an intraperitoneal (ip) injection of a mixture of medetomidine 0.15 mg, midazolam 2 mg, and butorphanol 2.5 mg/kg body weight (bw). The head of each rat was fixed with a stereotactic frame (Model 900; David Kopf Instruments, Tujunga, CA, USA). The scalp was incised at the midline and a small burr hole was drilled into the skull (1 mm posterior and 4 mm right-lateral to the bregma), using an electric drill. And then, F98 glioma cells were injected into the brain using a 25 µL Hamilton microsyringe with a 26-gauge needle (model 1700 RN, Hamilton Bonaduz AG, Bonaduz, Switzerland). The needle was inserted at a 5 mm depth from the skull and F98 cells were diluted in 10 µL of DMEM containing low-gelling temperature agarose at a concentration of either 10^3 for therapeutic experiments or 10^5 cells for biodistribution experiments. They were injected over 30 s using an automatic infuser pump. The needle entry hole was immediately sealed with bone wax and the incised scalp was closed with 3-0 silk sutures (Ethicon, North Ryde, NSW). After surgery, all animals were given atipamezole hydrochloride (0.15 mg/kg bw, ip).
Biodistribution studies were performed in Fischer rats bearing intracerebral implants of F98 rat glioma cells. 10–13 days after tumor implantation of 10^5 F98 glioma cells, when signs of a progressively growing tumor were evident (weight loss, lethargy, hunching, and ataxia), biodistribution studies were initiated at which time the animals had tumors weighing 90–180 mg. […] To compare its biodistribution with that of BPA or BSH, another group of rats received an iv injection of BPA at a concentration of 10 mg ^10B/kg bw or BSH at a concentration of 30 mg ^10B/kg bw. Biodistribution was determined 1 and 3 h after termination of iv injection. Animals were euthanized by an overdose of sevoflurane following which tumors and normal tissues, consisting of ipsilateral brain, contralateral brain, blood, heart, lung, liver, spleen, kidney, skin, and muscle, were removed and weighed for ^10B determination by ICP-AES.

[3] = system: F98 rat glioma cells; assay: Cell viability assay (WST-8) in F98 cells; assay type: cell-based; conditions: WST-8 test, read-out: IC50 (cytotoxicity)
Method: The cytotoxicity of KA-BSH was assayed using the water soluble tetrazolium (WST)-8 assay with a cell-counting kit (Wako Pure Chemicals, Osaka, Japan) following a modified version of the manufacturer-provided protocols. Relative cell survival was calculated according to Equation (1):(1) Relative cell survival (%)=absorbance value of compound treated well/absorbance value of untreated well×100

## N[C@@H](Cc1ccc(B(O)O)cc1)C(=O)O [BPA, boronophenylalanine, reference compound]
[1]
  10B concentration of F98 rat glioma cells: 0.654 ± 0.062 µg 10B/10^7 cells
[2]; 10 mg 10B/kg, 1 h
  10B concentration, Blood: 6.65 µg 10B/g
  10B concentration, Contralateral brain: 3.19 µg 10B/g
  10B concentration, Heart: 6.12 µg 10B/g
  10B concentration, Ipsilateral brain: 2.94 µg 10B/g
  10B concentration, Kidney: 27.57 µg 10B/g
  10B concentration, Liver: 5.40 µg 10B/g
  10B concentration, Lung: 5.74 µg 10B/g
  10B concentration, Muscle: 5.25 µg 10B/g
  10B concentration, Skin: 7.22 µg 10B/g
  10B concentration, Spleen: 7.58 µg 10B/g
  10B concentration, Tumor: 13.54 µg 10B/g and 13.54 ± 4.82 µg 10B/g
  T/Bl (tumor to blood ratio): 2.00
  T/Br (tumor to normal contralateral brain ratio): 4.21
[2]; 10 mg 10B/kg, 3 h
  10B concentration, Blood: 4.41 µg 10B/g
  10B concentration, Contralateral brain: 2.95 µg 10B/g
  10B concentration, Heart: 3.92 µg 10B/g
  10B concentration, Ipsilateral brain: 3.29 µg 10B/g
  10B concentration, Kidney: 11.69 µg 10B/g
  10B concentration, Liver: 3.54 µg 10B/g
  10B concentration, Lung: 4.12 µg 10B/g
  10B concentration, Muscle: 4.89 µg 10B/g
  10B concentration, Skin: 4.80 µg 10B/g
  10B concentration, Spleen: 6.02 µg 10B/g
  10B concentration, Tumor: 11.05 µg 10B/g
  T/Bl (tumor to blood ratio): 2.53
  T/Br (tumor to normal contralateral brain ratio): 3.83
[3]
  IC50: > 20000 µM

## dodecaboranethiol [BSH, reference compound]
[1]
  10B concentration of F98 rat glioma cells: 0.508 ± 0.072 µg 10B/10^7 cells
[2]; 30 mg 10B/kg, 1 h
  10B concentration, Blood: 19.17 µg 10B/g
  10B concentration, Contralateral brain: 0.32 µg 10B/g
  10B concentration, Heart: 3.25 µg 10B/g
  10B concentration, Ipsilateral brain: 0.44 µg 10B/g
  10B concentration, Kidney: 20.84 µg 10B/g
  10B concentration, Liver: 20.81 µg 10B/g
  10B concentration, Lung: 12.70 µg 10B/g
  10B concentration, Muscle: 5.25 µg 10B/g
  10B concentration, Skin: 7.99 µg 10B/g
  10B concentration, Spleen: 5.68 µg 10B/g
  10B concentration, Tumor: 5.49 µg 10B/g and 5.49 ± 0.25 µg 10B/g
  T/Bl (tumor to blood ratio): 0.29
  T/Br (tumor to normal contralateral brain ratio): 17.61
[2]; 30 mg 10B/kg, 3 h
  10B concentration, Blood: 5.16 µg 10B/g
  10B concentration, Contralateral brain: 0.24 µg 10B/g
  10B concentration, Heart: 1.15 µg 10B/g
  10B concentration, Ipsilateral brain: 0.36 µg 10B/g
  10B concentration, Kidney: 10.83 µg 10B/g
  10B concentration, Liver: 8.10 µg 10B/g
  10B concentration, Lung: 4.92 µg 10B/g
  10B concentration, Muscle: 0.87 µg 10B/g
  10B concentration, Skin: 4.00 µg 10B/g
  10B concentration, Spleen: 2.74 µg 10B/g
  10B concentration, Tumor: 3.01 µg 10B/g
  T/Bl (tumor to blood ratio): 0.61
  T/Br (tumor to normal contralateral brain ratio): 12.71
[3]
  IC50: 1680 µM

Source: paper PMC7349888, “Synthesis and Evaluation of Dodecaboranethiol Containing Kojic Acid (KA-BSH) as a Novel Agent for Boron Neutron Capture Therapy” (Cells, 2020)
